Tested on: T1, ochratoxin A–HSA complex
T1 construct: purchased Sigma-Aldrich
Test: Fluorescence anisotropy of ochratoxin A–HSA complex
Format: binding, human
Conditions: 1.0 µmol/L ochratoxin A, 1.5 µmol/L HSA, flavonoid 2.5–30 μM, PBS pH 7.4, λex 393 nm, λem 446 nm

SMILES | Fluorescence anisotropy of ochratoxin A
O=c1cc(-c2ccccc2)oc2cc(O)cc(O)c12 [Chrysin, 5,7-dihydroxyflavone] | failed to affect
O=c1cc(-c2ccccc2)oc2cc(OS(=O)(=O)O)cc(O)c12 [Chrysin-7-sulfate, chrysin-7-sulfate] | concentration-dependent decrease
O=C(O)C1OC(Oc2cc(O)c3c(=O)cc(-c4ccccc4)oc3c2)C(O)C(O)C1O (stereo not drawn) [Chrysin-7-glucuronide, chrysin-7-glucuronide] | failed to affect
